Like-named read-outs stand apart in the source and are kept apart here.
How the values were obtained:
Assay in all cases: cell-based
CB2 [1] = target: T1, CB2 (Homo sapiens, UniProt P34972); details: CB2, agonist mode; for EC50: read-out: CB2 Agonist mode cAMP EC50; for Emax: read-out: CB2 Agonist mode cAMP Emax
hCB1 [2] = target: T2, hCB1 (Homo sapiens, UniProt P21554); design: host or cells: CHO-K1 PathHunter
Experimental: PathHunter CB1 β-Arrestin Assay: Chinese hamster ovary K1 (CHO-K1)-PathHunter hCB1 β-arrestin cells (DiscoveRx, Fremont, CA) were seeded at 5000 cells/well in 384-well plates 24 h before use and incubated at 37° C., 5% CO2. Compounds were dissolved in dimethyl sulfoxide (DMSO) and diluted in optimized cell culture (OCC) media. Agonist EC80 was determined directly from an agonist dose—response curve (data not shown). […] Five microliters of allosteric modulator or vehicle solution was added to each well at the appropriate concentrations and incubated for 30 min. Five microliters of agonist was then added to each well followed by a 90 min incubation. Fifteen microliters of detection reagent was then added followed by further 60 min incubation at room temperature. Chemiluminescence was measured on a standard luminescence plate reader as relative light units (RLU). Basal RLU was defined as zero. […] Data were analyzed using the fourparameter variable-slope and allosteric EC50 shift nonlinear regression equations in Prism 5.0 (GraphPad, San Diego, CA).

CB2 [3] = target: T1, CB2; details: CB2, agonist mode; for EC50: read-out: CB2 Agonist mode β-Arrestin EC50; for Emax: read-out: CB2 Agonist mode β-Arrestin Emax
hCB1 [4] = target: T2, hCB1; design: host or cells: CHO-K1
Experimental: HitHunter cAMP assay: Inhibition of forskolin-stimulated cAMP was determined using the DiscoveRx HitHunter assay in hCB1R CHO-K1 cells. Cells (20,000 cells/well in low-volume 96 well plates) were incubated overnight in Opti-MEM (Invitrogen) containing 1% FBS at 37° C. and 5% CO2. Following this, Opti-MEM media was removed and replaced with cell assay buffer (DiscoveRx) and cells were co-treated at 37° C. with 10 μM forskolin and hCB1R ligands (0.10 nM-10 μM) for 30 min or 90 min cAMP antibody solution and cAMP working detection solutions were then added to cells according to the manufacturer's directions (DiscoveRx®) and cells were incubated for 60 min at room temperature. cAMP solution A was added according to the manufacturer's directions (DiscoveRx®) and cells were incubated for an additional 60 min at room temperature before chemiluminescence was measured on a Cytation 5 plate reader (top read, gain 200, integration time 10,000 ms).

[5] = CB1, PAM mode, read-out: CB1 PAM mode β-Arrestin EC50
[6] = CB1, agonist mode, read-out: CB1 Agonist mode β-Arrestin EC50
[7] = read-out: CB1 Agonist mode β-Arrestin Emax
[8] = read-out: CB1 PAM mode β-Arrestin Emax
[9] = CB1, PAM mode, read-out: CB1 PAM mode cAMP EC50
[10] = CB1, agonist mode, read-out: CB1 Agonist mode cAMP EC50
[11] = read-out: CB1 Agonist mode cAMP Emax, CB1, agonist mode
[12] = read-out: CB1 PAM mode cAMP Emax, CB1, PAM mode

T1 sequence (P34972 whole entry, species assumed): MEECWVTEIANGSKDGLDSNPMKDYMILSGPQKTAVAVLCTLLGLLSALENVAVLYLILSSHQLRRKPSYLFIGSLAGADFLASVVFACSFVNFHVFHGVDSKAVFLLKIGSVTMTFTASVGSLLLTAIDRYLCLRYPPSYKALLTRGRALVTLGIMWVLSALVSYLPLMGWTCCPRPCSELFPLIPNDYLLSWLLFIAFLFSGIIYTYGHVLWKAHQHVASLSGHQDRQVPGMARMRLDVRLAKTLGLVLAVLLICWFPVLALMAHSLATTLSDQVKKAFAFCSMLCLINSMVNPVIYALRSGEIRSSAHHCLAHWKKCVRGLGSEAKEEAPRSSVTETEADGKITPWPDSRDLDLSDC
T2 sequence (P21554 whole entry): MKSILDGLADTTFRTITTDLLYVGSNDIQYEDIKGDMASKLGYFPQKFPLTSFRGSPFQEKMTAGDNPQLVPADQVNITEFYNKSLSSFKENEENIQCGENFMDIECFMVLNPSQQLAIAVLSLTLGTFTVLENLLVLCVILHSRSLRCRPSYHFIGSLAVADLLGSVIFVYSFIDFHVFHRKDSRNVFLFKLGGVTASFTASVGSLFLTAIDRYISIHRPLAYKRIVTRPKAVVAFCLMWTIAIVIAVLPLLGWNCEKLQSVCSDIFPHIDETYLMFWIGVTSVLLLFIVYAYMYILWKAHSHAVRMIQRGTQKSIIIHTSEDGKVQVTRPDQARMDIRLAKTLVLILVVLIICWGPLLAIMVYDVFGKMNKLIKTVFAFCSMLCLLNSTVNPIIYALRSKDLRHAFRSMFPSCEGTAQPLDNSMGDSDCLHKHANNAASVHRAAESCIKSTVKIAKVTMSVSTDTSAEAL

SMILES	EC50 (CB2 [1])	Emax (CB2 [1])	EC50 (hCB1 [2]; [5])	EC50 (hCB1 [2]; [6])	Emax (hCB1 [2]; [7])	Emax (hCB1 [2]; [8])	EC50 (CB2 [3])	Emax (CB2 [3])	EC50 (hCB1 [4]; [9])	EC50 (hCB1 [4]; [10])	Emax (hCB1 [4]; [11])	Emax (hCB1 [4]; [12])	CB1 PAM mode β-Arrestin Emax (hCB1 [2]; CB1, PAM mode)	CB1 Agonist mode β-Arrestin Emax (hCB1 [2]; CB1, agonist mode)	CB1 PAM mode cAMP Emax (hCB1 [4]; CB1, PAM mode)	CB1 Agonist mode cAMP Emax (hCB1 [4]; CB1, agonist mode)	EC50 (hCB1 [2])	EC50 (hCB1 [4]; CB1 PAM mode cAMP EC50, CB1, PAM mode)
O=C(O)CC=C(c1ccccc1)c1cn(-c2ccccc2)c2ccccc12 (mixture of isomers) [Compound 16, (E and Z)-4-Phenyl-4-(1-phenyl-1H-indol-3-yl)but-3-enoic acid]	359 nM	80%	> 10 µM	> 10 µM	0%	0%	> 10 µM	0%	934 nM	689 nM	94%	104%	–	–	–	–	–	–
CC(CC(c1ccccc1)c1cn(-c2ccccc2)c2ccccc12)C(=O)O (racemic) [Compound 11, (±)-2-Methyl-4-phenyl-4-(1-phenyl-1H-indol-3-yl)butanoic acid]	–	–	> 10 µM	> 10 µM	0%	0%	–	–	1890 nM	1260 nM	62%	100%	–	–	–	–	–	–
CC(CC(c1ccccc1)c1cn(-c2ccccc2)c2ccccc12)C(=O)O (racemic) [Compound 12, (±)-2-Methyl-4-phenyl-4-(1-phenyl-1H-indol-3-yl)butanoic acid]	–	–	> 10 µM	> 10 µM	–	–	–	–	704 nM	1060 nM	–	–	(0) %	(0) %	(101) %	(60) %	–	–
O=C(O)C(c1ccccc1)c1cn(-c2ccccc2)c2ccccc12 (centres unmarked) [Compound 7, 2-Phenyl-2-(1-phenyl-1H-indol-3-yl)acetic acid]	–	–	> 10 µM	–	–	0%	–	–	4180 nM	–	–	78.9%	–	–	–	–	–	–
O=C(O)CC(c1ccccc1)c1cn(-c2ccccc2)c2ccccc12 (centres unmarked) [Compound 8, 3-Phenyl-3-(1-phenyl-1H-indol-3-yl)propanoic acid]	–	–	> 10 µM	–	–	0%	–	–	509 nM	–	–	144%	–	–	–	–	–	–
O=C(O)C(C(=O)O)C(c1ccccc1)c1cn(-c2ccccc2)c2ccccc12 (centres unmarked) [Compound 9, 2-(Phenyl(1-phenyl-1H-indol-3-yl)methyl)malonic acid]	–	–	> 10 µM	–	–	0%	–	–	1280 nM	–	–	158%	–	–	–	–	–	–
CCOC(=O)C(C(=O)O)C(c1ccccc1)c1cn(-c2ccccc2)c2ccccc12 (centres unmarked) [Compound 10, 3-Ethoxy-3-oxo-2-(phenyl(1-phenyl-1H-indol-3-yl)methyl)propanoic acid]	–	–	> 10 µM	–	–	4.59%	–	–	> 10000 nM	–	–	6.98%	–	–	–	–	–	–
CCOC(=O)CCC(c1ccccc1)c1cn(-c2ccccc2)c2ccccc12 (centres unmarked) [Compound 13, Ethyl 4-phenyl-4-(1-phenyl-1H-indol-3-yl)butanoate]	–	–	> 10 µM	–	–	0%	–	–	> 10000 nM	–	–	0%	–	–	–	–	–	–
O=C(O)/C=C\C(c1ccccc1)c1cn(-c2ccccc2)c2ccccc12 (centres unmarked) [Compound 15, (Z)-4-phenyl-4-(1-phenyl-1H-indol-3-yl)but-2-enoic acid]	1050 nM	81%	> 10 µM	> 10 µM	0%	0%	> 10 µM	0%	639 nM	506 nM	86%	84%	–	–	–	–	–	–
Cc1ccc2c(C(CCC(=O)O)c3ccccc3)cn(-c3ccccc3)c2c1 (centres unmarked) [Compound 17, 4-(6-Methyl-1-phenyl-1H-indol-3-yl)-4-phenylbutanoic acid]	1000 nM	74%	> 10 µM	> 10 µM	0%	0%	> 10 µM	0%	1440 nM	1250 nM	73%	93%	–	–	–	–	–	–
O=C(O)CCC(c1ccccc1)c1cn(Cc2ccccc2)c2ccccc12 (centres unmarked) [Compound 18, 4-(1-Penzyl-1H-indol-3-yl)-4-phenylbutanoic acid]	407 nM	64%	> 10 µM	> 10 µM	0%	0%	> 10 µM	0%	610 nM	1040 nM	87%	97%	–	–	–	–	–	–
O=C(O)CCCC(c1ccccc1)c1cn(-c2ccccc2)c2ccccc12 (centres unmarked) [Compound 19, 5-Phenyl-5-(1-phenyl-1H-indol-3-yl)pentanoic acid]	654 nM	95%	> 10 µM	> 10 µM	0%	0%	> 10 µM	0%	1420 nM	827 nM	98%	98%	–	–	–	–	–	–
O=C(O)CCCCC(c1ccccc1)c1cn(-c2ccccc2)c2ccccc12 (centres unmarked) [Compound 20, 6-Phenyl-6-(1-phenyl-1H-indol-3-yl)hexanoic acid]	505 nM	98%	> 10 µM	> 10 µM	0%	0%	> 10 µM	0%	1090 nM	355 nM	96%	96%	–	–	–	–	–	–
O=C(O)CCC(c1ccccc1)c1cn(-c2ccccn2)c2ccccc12 (centres unmarked) [Compound 21, 4-Phenyl-4-(1-(pyridin-2-yl)-1H-indol-3-yl)butanoic acid]	1110 nM	85%	> 10 µM	> 10 µM	0%	0%	> 10 µM	0%	869 nM	457 nM	95%	96%	–	–	–	–	–	–
O=C(O)CCC(c1ccccc1)c1cn(-c2cccnc2)c2ccccc12 (centres unmarked) [Compound 22, 4-Phenyl-4-(1-(pyridin-3-yl)-1H-indol-3-yl)butanoic acid]	731 nM	68%	> 10 µM	> 10 µM	0%	0%	> 10 µM	0%	1000 nM	831 nM	87%	109%	–	–	–	–	–	–
OC(c1ccccc1)c1cn(-c2ccccc2)c2ccccc12 (centres unmarked) [Compound 30, Phenyl(1-phenyl-1H-indol-3-yl)methanol]	–	–	> 10 µM	–	–	0%	–	–	> 10000 nM	–	–	0%	–	–	–	–	–	–
OCC(c1ccccc1)c1cn(-c2ccccc2)c2ccccc12 (centres unmarked) [Compound 31, 2-Phenyl-2-(1-phenyl-1H-indol-3-yl)ethan-1-ol]	–	–	> 10 µM	–	–	0%	–	–	> 10000 nM	–	–	1.31%	–	–	–	–	–	–
OCCC(c1ccccc1)c1cn(-c2ccccc2)c2ccccc12 (centres unmarked) [Compound 32, 3-Phenyl-3-(1-phenyl-1H-indol-3-yl)propan-1-ol]	–	–	> 10 µM	–	–	0%	–	–	> 10000 nM	–	–	27.1%	–	–	–	–	–	–
OCCCC(c1ccccc1)c1cn(-c2ccccc2)c2ccccc12 (centres unmarked) [Compound 34, 4-Phenyl-4-(1-phenyl-1H-indol-3-yl)butan-1-ol]	–	–	> 10 µM	–	–	5%	–	–	> 10000 nM	–	–	0%	–	–	–	–	–	–
OCC(c1ccccc1)c1cn(-c2ccccc2)c2ccc(Cl)cc12 (centres unmarked) [Compound 35, 2-(5-Chloro-1-phenyl-1H-indol-3-yl)-2-phenylethan-1-ol]	–	–	> 10 µM	–	–	0%	–	–	> 10000 nM	–	–	2.81%	–	–	–	–	–	–
NC(=O)CC(c1ccccc1)c1cn(-c2ccccc2)c2ccccc12 (centres unmarked) [Compound 38, 3-Phenyl-3-(1-phenyl-1H-indol-3-yl)propanamide]	–	–	> 10 µM	–	–	0%	–	–	> 10000 nM	–	–	27.1%	–	–	–	–	–	–
c1ccc(C(Cc2nnn[nH]2)c2cn(-c3ccccc3)c3ccccc23)cc1 (centres unmarked) [Compound 39, 1-Phenyl-3-(1-phenyl-2-(1H-tetrazol-5-yl)ethyl)-1H-indole]	–	–	> 10 µM	–	–	0%	–	–	423 nM	–	–	94%	–	–	–	–	–	–
O=C(c1ccccc1)c1cn(-c2ccccc2)c2ccccc12 [Compound 40, Phenyl(1-phenyl-1H-indol-3-yl)methanone]	–	–	–	–	–	0.273%	–	–	–	–	–	11.7%	–	–	–	–	> 10 µM	> 10000 nM

Reference: patent publication US12486228B2, “N-substituted indoles and use as allosteric modulators of cannabinoid receptors” (priority 2018, dated 2025)
